Test [1] has as its target T1, BRD4-1 (Homo sapiens, UniProt O60885).
T1 construct: made in house; host or cells: Escherichia coli
Nature of the test: BRD4-1 Ligand KI assay (TR-FRET, Cy5 labeled probe displacement). Type of test: binding. On the procedure: (§1) Binding of the two tandem bromodomains, BRD4-I and BRD4-2, to a Cy5 labeled probe/ligand (Compound 1020-501) were measured using a homogeneous time resolved fluorescence resonance energy transfer (TR-FRET) assay.
(§2) The labeled ligand specifically binds BRD4-1 and BRD4-2 and can be displaced by a small molecule inhibitor that shares a similar or overlapping binding site. BRD4-I and BRD4-2 were expressed and purified from Escherichia coli as N-terminal His6-tagged proteins. A Eu-cryptate labeled anti-His antibody (Perkin Elmer) was used to specifically bind BRD4. […] Assays were performed in 50 mM Hepes (pH 7.5), 150 mM NaCl, 0.1 mg/ml BSA, 0.01% (v/v) Brij, 0.5% (v/v) DMSO and 1.0 nM labeled ligand at the following concentrations for each BRD4 isoform: 2 nM BRD4-1 and 0.5 nM BRD4-2. After an assay reaction time of 60 minutes at 25° C., binding was measured with 2 nM Eu-cryptate labeled anti-His antibody. TR-FRET signal was detected on an Envision plate reader (Ex: 320 nm; Em: 615/665 nm; 100 μs delay and 200 μs read window). […] All IC50 values represent geometric mean values of a minimum of four determinations. The IC50 values were converted to Ki values (dissociation constant for BRD4-inhibitor complex) using the Cheng and Prusoff equation for a competitive inhibitor mode of action. These assays generally produced results within 3-fold of the reported mean.

For test [2], the target named is T2, BRD4-2 (Homo sapiens, UniProt O60885).
T2 construct: made in house; host or cells: Escherichia coli
Nature of the test: BRD4-2 Ligand KI assay (TR-FRET, Cy5 labeled probe displacement). Type of test: binding. As for the experimental part:
as §1, §2

Test [3] addresses T1, BRD4-1. The test is described as follows: HTRF (TR-FRET) assay, BRD4-1 binding to acetylated histone H4 peptide. On the procedure: (§3) Binding of the two tandem bromodomains, BRD4-1 and BRD4-2, to an acetylated histone H4 peptide was measured using a homogeneous time resolved fluorescence resonance energy transfer (TR-FRET) assay. […] BRD4-1 and BRD4-2 were expressed and purified from Escherichia coli as N-terminal His6-tagged proteins. An XL665 labeled anti-His antibody (Cisbio) was used to specifically bind BRD4 and a cryptate labeled streptavidin protein was used because it specifically recognized the biotinylated H4 peptide. […] After an assay reaction time of 60 minutes at 25° C., binding was measured with 2 nM crytptate labeled streptavidin and 10 nM anti-His-XL665 antibody. TR-FRET signal was detected on an Envision plate reader (Ex: 320 nm; Em: 615/665 nm; 100 us delay and 200 μs read window). […] All IC50 values represent geometric mean values of a minimum of four determinations.

For test [4], the target named is T1, BRD4-1. Nature of the test: Alpha assay, BRD4-1 binding to acetylated histone H4 peptide. On the procedure: Binding of the bromodomain BRD4-I to an acetylated histone H4 peptide was measured using a bead-based Amplified Luminescent Proximity Homogeneous Assay (ALPHA). […] BRD4-I was expressed and purified from Escherichia coli as an N-terminal His6-tagged protein. Nickel-Chelate ALPHA acceptor beads (Perkin Elmer) were used to specifically bind BRD4-1 and ALPHA streptavidin donor beads (Perkin Elmer) were used because they specifically recognized the biotinylated H4 peptide. […] Assays were performed in 50 mM Hepes (pH 7.5), 150 mM NaCl, 0.1 mg/ml BSA, 0.01% (v/v) Brij, 0.5% (v/v) DMSO, 200 nM H4 peptide and 15 nM of BRD4-1 protein. After an assay reaction time of 60 minutes at 25° C., binding was measured with 20 μg/ml streptavidin donor beads and 20 μg/ml nickle-chelate acceptor beads. ALPHA signal was detected on an Envision plate reader (Ex: 320 nm; Em: 570 nm; Ex time: 180 ms). […] All IC50 values represent geometric mean values of a minimum of four determinations.

The target in test [5] is T2, BRD4-2. The test is described as follows: HTRF (TR-FRET) assay, BRD4-2 binding to acetylated histone H4 peptide. On the procedure: as §3
The mark [6] stands for this setting: 2 nM BRD4-1, 1.0 nM labeled ligand, 60 minutes at 25° C., read-out: BRD4-1 Ligand KI (IC50).
Where [7] appears, read: 0.5 nM BRD4-2, 1.0 nM labeled ligand, 60 minutes at 25° C., read-out: BRD4-2 Ligand KI (IC50).
Setting [8] is: 60 nM BRD4-1, 200 nM H4 peptide, 60 minutes at 25° C., geometric mean of a minimum of four determinations, read-out: HTRF BRD4-1 (IC50).
[9] abbreviates: 15 nM BRD4-1, 200 nM H4 peptide, 60 minutes at 25° C., geometric mean of a minimum of four determinations, read-out: Alpha Assay (IC50).
The mark [10] stands for this setting: 120 nM BRD4-2, 200 nM H4 peptide, 60 minutes at 25° C., geometric mean of a minimum of four determinations, read-out: HTRF BRD4-2 (IC50).

`Cc1cccc(C(O)(c2cc(-c3c(C)noc3C)cc3[nH]c(C4CC4)nc23)C2CCCO2)n1` (racemic) [Compound 1020-114, (2-cyclopropyl-6-(3,5-dimethylisoxazol-4-yl)-1H-benzo[d]imidazol-4-yl)(6-methylpyridin-2-yl)(tetrahydrofuran-2-yl)methanol]: the IC50 on BRD4-1 [1] (setting [6]) turned out to be 0.0038 µM; on BRD4-2 [2] (setting [7]), 0.0027 µM.

With `Cc1noc(C)c1-c1cc(C(O)(c2ccccc2)c2ccccc2)c2nc(C3CC3)[nH]c2c1` [Compound 1020-102, (2-Cyclopropyl-6-(3,5-dimethylisoxazol-4-yl)-1H-benzo[d]imidazol-4-yl)diphenylmethanol], the IC50 turned out to be 0.101 µM at BRD4-1 [3] (setting [8]), 0.0143 µM at BRD4-1 [4] (setting [9]) and 0.0757 µM on BRD4-2 [5] (setting [10]).

As to `Cc1noc(C)c1-c1cc(C(O)(c2nccs2)c2nccs2)c2nc(C3CC3)[nH]c2c1` [Compound 1020-103, (2-cyclopropyl-6-(3,5-dimethylisoxazol-4-yl)-1H-benzo[d]imidazol-4-yl)di(thiazol-2-yl)methanol], the IC50 on BRD4-1 [1] (setting [6]) came to 0.004 µM; at BRD4-2 [2] (setting [7]) it was 0.0124 µM.

Take `Cc1noc(C)c1-c1cc(C(O)(c2ccccn2)c2ccccn2)c2nc(C3CC3)[nH]c2c1` [Compound 1020-104, (2-cyclopropyl-6-(3,5-dimethylisoxazol-4-yl)-1H-benzo[d]imidazol-4-yl)di(pyridin-2-yl)methanol]: the IC50 was 0.0072 µM on BRD4-1 [1] (setting [6]) and 0.0117 µM at BRD4-2 [2] (setting [7]).

With `Cc1noc(C)c1-c1cc(C(O)(c2ccccc2)c2cccnc2)c2nc(C3CC3)[nH]c2c1` (centres unmarked) [Compound 1020-112, (2-cyclopropyl-6-(3,5-dimethylisoxazol-4-yl)-1H-benzo[d]imidazol-4-yl)(phenyl)(pyridin-3-yl)methanol], the IC50 on BRD4-1 [1] (setting [6]) is 0.0104 µM; on BRD4-2 [2] (setting [7]), 0.0135 µM.

Regarding `Cc1noc(C)c1-c1cc(C(O)(c2ccccc2)c2ccccn2)c2nc(C3CC3)[nH]c2c1` (centres unmarked) [Compound 1020-113, (2-cyclopropyl-6-(3,5-dimethylisoxazol-4-yl)-1H-benzo[d]imidazol-4-yl)(phenyl)(pyridin-2-yl)methanol], the IC50 is 0.0107 µM at BRD4-1 [1] (setting [6]) and 0.0128 µM on BRD4-2 [2] (setting [7]).

As for `CCC(CC)c1cc(-c2c(C)noc2C)cc2[nH]c(C3CC3)nc12` [Compound 1020-120, 4-(2-Cyclopropyl-4-(pentan-3-yl)-1H-benzo[d]imidazol-6-yl)-3,5-dimethylisoxazole], the values for the 50% inhibitory concentration (IC50) on BRD4-1 [3], at BRD4-1 [4] and at BRD4-2 [5] were 0.0885 µM, 0.0397 µM and 0.0761 µM, respectively.

As to `Cc1noc(C)c1-c1cc(C(O)C2CCCC2)c2nc(C3CC3)[nH]c2c1` (centres unmarked) [Compound 1020-121, Cyclopentyl(2-cyclopropyl-6-(3,5-dimethylisoxazol-4-yl)-1H-benzo[d]imidazol-4-yl)methanol], the IC50 worked out at 0.0952 µM at BRD4-1 [3] (setting [8]), 0.0247 µM on BRD4-1 [4] (setting [9]) and 0.0808 µM at BRD4-2 [5] (setting [10]).

For the molecule `CCC(O)(CC)c1cc(-c2c(C)noc2C)cc2c1nc(C1CC1)n2C` [Compound 1020-132, 3-(2-Cyclopropyl-6-(3,5-dimethylisoxazol-4-yl)-1-methyl-1H-benzo[d]imidazol-4-yl)pentan-3-ol], the results for the IC50 on BRD4-1 [3] (setting [8]), on BRD4-1 [4] (setting [9]) and at BRD4-2 [5] (setting [10]) were 0.61 µM, 0.573 µM and 0.883 µM, respectively.

Take `Cc1noc(C)c1-c1cc(N2C(=O)CCC2C)c2nc(C3CC3)[nH]c2c1` (centres unmarked) [Compound 1020-136, 1-(2-Cyclopropyl-6-(3,5-dimethylisoxazol-4-yl)-1H-benzo[d]imidazol-4-yl)-5-methylpyrrolidin-2-one]: the IC50 at BRD4-1 [3] (setting [8]) worked out at 0.823 µM; on BRD4-1 [4] (setting [9]), 0.513 µM; on BRD4-2 [5] (setting [10]), 0.727 µM.

Regarding `CCC1CCC(=O)N1c1cc(-c2c(C)noc2C)cc2[nH]c(C3CC3)nc12` (centres unmarked) [Compound 1020-137, 1-(2-Cyclopropyl-6-(3,5-dimethylisoxazol-4-yl)-1H-benzo[d]imidazol-4-yl)-5-ethylpyrrolidin-2-one], the IC50 on BRD4-1 [3] (setting [8]) is 0.187 µM; at BRD4-1 [4] (setting [9]) it was 0.0528 µM; on BRD4-2 [5] (setting [10]), 0.399 µM.

As to `Cc1noc(C)c1-c1cc(C(O)(c2ccccn2)c2ccccn2)c2nc(C3CC3)[nH]c2c1F` [Compound 1020-224, (2-cyclopropyl-6-(3,5-dimethylisoxazol-4-yl)-7-fluoro-1H-benzo[d]imidazol-4-yl)di(pyridin-2-yl)methanol], the results for the IC50 at BRD4-1 [1] and on BRD4-2 [2] were 0.0108 µM and 0.0202 µM, respectively.

With `Cc1noc(C)c1-c1cc(C(O)(c2ncccn2)c2ccc(F)cc2F)c2nc(C3CC3)[nH]c2c1` (centres unmarked) [Compound 1020-257, (2-Cyclopropyl-6-(3,5-dimethylisoxazol-4-yl)-1H-benzo[d]imidazol-4-yl)(2,4-difluorophenyl)(pyrimidin-2-yl)methanol], the IC50 is 0.0047 µM at BRD4-1 [1] (setting [6]) and 0.0056 µM at BRD4-2 [2] (setting [7]).
